# Test results taken from ChEMBL document CHEMBL1201862, “PubChem BioAssay data set” (2004).
# Activity calls are given as the source filed them.
# What was measured:
# [1] = target: T1, Calpain-2 catalytic subunit (Sus scrofa, UniProt P43367); assay: pig calpain II inhibitor potency, dose response, biochemical, fluorogenic peptide substrate (AID 1420); format: functional
# T1 sequence (P43367 whole entry): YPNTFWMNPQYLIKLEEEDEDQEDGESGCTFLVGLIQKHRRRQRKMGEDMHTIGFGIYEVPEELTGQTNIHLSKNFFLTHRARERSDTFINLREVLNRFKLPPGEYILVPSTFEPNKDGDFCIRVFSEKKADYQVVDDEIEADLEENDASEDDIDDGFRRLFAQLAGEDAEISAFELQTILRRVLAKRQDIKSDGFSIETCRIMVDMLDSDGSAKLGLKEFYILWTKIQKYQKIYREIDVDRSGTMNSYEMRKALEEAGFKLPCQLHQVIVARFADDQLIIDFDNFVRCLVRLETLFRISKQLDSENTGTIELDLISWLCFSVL
# SUMO-activating enzyme [2] = target: T2, SUMO-activating enzyme (Homo sapiens, UniProt Q9UBT2); assay: inhibitors of in vitro SUMOylation cascade, primary screen, biochemical, HTRF, uHTS (AID 2006); format: protein-complex assay
# SUMO-activating enzyme [3] = target: T2, SUMO-activating enzyme; assay: SUMOylation inhibitor hit validation, confirmation, SUMOylation inhibitor project, biochemical, AlphaScreen (AID 2018); format: functional
# Aminopeptidase N = target: T3, Aminopeptidase N (Plasmodium falciparum FcB1/Columbia, UniProt O96935); assay: P. falciparum M1AAP inhibitors, biochemical, fluorogenic H-Leu-NHMec substrate, 1536-well (AID 1445); parameters: species or system Plasmodium falciparum 3D7, 3D7
# T3 sequence (O96935 whole entry): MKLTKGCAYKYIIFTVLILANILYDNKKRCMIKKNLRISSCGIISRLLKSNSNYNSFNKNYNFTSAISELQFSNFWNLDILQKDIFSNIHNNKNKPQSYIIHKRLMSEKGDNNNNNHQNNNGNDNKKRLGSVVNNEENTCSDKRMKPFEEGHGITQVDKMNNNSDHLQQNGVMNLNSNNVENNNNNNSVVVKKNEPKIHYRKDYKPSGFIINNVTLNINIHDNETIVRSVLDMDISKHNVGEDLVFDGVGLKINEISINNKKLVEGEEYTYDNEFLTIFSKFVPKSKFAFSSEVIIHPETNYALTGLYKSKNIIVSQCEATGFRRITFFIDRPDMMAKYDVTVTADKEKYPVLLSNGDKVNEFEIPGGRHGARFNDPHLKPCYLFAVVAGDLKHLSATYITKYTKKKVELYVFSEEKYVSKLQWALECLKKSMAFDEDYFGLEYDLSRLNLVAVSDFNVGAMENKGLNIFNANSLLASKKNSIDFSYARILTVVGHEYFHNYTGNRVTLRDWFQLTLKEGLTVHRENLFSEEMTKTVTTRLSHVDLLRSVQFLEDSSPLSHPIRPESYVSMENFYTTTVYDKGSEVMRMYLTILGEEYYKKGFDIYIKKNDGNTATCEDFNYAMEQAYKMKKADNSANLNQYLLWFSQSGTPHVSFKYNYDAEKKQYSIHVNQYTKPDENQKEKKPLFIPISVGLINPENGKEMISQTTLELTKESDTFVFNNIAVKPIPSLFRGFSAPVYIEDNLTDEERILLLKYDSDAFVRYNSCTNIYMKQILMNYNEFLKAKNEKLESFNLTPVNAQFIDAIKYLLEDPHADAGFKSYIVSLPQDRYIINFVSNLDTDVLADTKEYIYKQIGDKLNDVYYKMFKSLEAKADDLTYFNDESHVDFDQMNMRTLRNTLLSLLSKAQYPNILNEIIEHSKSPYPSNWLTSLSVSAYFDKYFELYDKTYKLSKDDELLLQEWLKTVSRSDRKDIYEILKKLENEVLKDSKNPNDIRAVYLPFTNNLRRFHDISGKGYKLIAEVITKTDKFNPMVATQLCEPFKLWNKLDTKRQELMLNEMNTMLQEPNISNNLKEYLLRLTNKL
# cells [4] = format: functional, cell-based
# [5] = target: Photoreceptor-specific nuclear receptor (Homo sapiens, UniProt Q9Y5X4); format: functional;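 further: potency for compounds that break the NR2E3 corepressor complex and count as activators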
# [6] = target: T4, Trace amine-associated receptor 1 (Homo sapiens, UniProt Q96RJ0); assay: Fluorescence-based cell-based high throughput dose response assay to identify agonists of the human trace amine associated receptor 1 (TAAR1).; format: functional
# T4 sequence (Q96RJ0 whole entry): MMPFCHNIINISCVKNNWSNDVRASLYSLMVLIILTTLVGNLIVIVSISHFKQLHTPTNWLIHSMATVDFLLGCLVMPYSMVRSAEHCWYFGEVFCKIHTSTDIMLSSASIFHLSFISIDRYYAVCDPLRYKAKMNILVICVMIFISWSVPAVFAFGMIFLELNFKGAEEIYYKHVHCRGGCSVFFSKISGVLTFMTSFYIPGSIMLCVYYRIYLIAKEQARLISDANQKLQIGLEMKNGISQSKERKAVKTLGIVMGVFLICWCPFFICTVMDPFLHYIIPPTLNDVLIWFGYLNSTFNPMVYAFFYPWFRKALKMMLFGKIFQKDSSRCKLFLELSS
# cells [7] = format: functional, cell-based; remark: listed apart in the source
# [8] = target: Peroxisome proliferator-activated receptor gamma/Nuclear receptor corepressor 2 (Homo sapiens, UniProt P37231+Q9Y618); format: functional
# [9] = target: T4, Trace amine-associated receptor 1; assay: Counterscreen for agonists of the human trace amine associated receptor 1 (hTAAR1): Fluorescence-based cell-based high throughput dose response assay to identify hTAAR1 agonist that also desensitize TAAR1 receptor response.; format: functional
# Leucine aminopeptidase = target: T5, Leucine aminopeptidase (Plasmodium falciparum 3D7, UniProt Q8IL11); assay: P. falciparum M17LAP inhibitors, primary screen, biochemical, fluorogenic H-Leu-NHMec substrate, 1536-well (AID 1619); format: functional
# T5 sequence (Q8IL11 whole entry): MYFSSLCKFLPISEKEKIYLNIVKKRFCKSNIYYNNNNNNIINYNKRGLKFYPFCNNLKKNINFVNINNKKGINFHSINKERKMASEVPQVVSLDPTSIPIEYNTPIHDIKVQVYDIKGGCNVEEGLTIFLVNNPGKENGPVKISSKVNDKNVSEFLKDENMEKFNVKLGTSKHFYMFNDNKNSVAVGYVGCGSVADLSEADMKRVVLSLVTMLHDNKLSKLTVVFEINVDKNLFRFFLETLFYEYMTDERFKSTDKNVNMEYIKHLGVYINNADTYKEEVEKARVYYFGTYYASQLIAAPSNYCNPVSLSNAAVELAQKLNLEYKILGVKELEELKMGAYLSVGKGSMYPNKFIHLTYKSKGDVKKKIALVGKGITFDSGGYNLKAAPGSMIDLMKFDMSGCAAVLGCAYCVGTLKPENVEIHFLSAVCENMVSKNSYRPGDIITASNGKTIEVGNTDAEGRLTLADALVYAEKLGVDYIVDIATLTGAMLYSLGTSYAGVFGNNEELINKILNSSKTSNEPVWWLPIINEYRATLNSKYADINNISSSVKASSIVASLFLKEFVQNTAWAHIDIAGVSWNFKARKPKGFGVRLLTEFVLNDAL
# [10] = target: Voltage-dependent T-type calcium channel subunit alpha-1H (Homo sapiens, UniProt O95180); format: functional;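 further: channel activity triggered by adding a high calcium stimulation buffer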
# [11] = target: T6, Short transient receptor potential channel 4 (Mus musculus, UniProt Q9QUQ5); assay: mouse TRPC4 channel inhibitors, dose response, cell-based, HEK293 TRPC4/mu-opioid, Fluo-4 calcium (AID 434942); format: functional;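 further: potency of inhibitors blocking the TRPC4 calcium response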
# T6 sequence (Q9QUQ5 whole entry): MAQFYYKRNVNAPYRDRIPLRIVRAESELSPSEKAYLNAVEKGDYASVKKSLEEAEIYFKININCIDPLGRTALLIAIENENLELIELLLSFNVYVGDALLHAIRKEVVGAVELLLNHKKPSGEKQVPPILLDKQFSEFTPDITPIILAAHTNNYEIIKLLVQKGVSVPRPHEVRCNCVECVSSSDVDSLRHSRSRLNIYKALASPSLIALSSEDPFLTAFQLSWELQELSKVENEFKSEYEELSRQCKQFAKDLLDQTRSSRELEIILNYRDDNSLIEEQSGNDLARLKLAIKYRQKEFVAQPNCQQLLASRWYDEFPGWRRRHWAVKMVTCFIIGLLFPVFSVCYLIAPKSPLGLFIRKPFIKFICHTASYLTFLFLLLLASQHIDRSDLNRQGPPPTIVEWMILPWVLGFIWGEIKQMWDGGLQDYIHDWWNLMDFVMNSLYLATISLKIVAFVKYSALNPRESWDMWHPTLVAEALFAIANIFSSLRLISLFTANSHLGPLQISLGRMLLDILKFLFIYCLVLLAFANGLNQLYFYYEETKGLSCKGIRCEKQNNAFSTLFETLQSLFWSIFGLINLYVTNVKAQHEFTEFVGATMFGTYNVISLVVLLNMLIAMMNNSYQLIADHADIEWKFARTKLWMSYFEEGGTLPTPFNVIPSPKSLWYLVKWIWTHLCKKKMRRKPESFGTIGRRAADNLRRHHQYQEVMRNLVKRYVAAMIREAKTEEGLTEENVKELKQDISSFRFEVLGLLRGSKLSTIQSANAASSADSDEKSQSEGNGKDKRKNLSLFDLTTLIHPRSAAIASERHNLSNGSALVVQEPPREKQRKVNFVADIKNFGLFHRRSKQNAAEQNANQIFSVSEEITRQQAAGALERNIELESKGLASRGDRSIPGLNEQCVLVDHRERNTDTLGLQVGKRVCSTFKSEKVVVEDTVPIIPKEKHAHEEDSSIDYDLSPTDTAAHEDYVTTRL
# [12] = target: T7, Zinc finger protein mex-5 (Caenorhabditis elegans, UniProt Q9XUB2); assay: MEX-5/TCR-2 RNA interaction inhibitors, dose response, biochemical, C. elegans, fluorescence polarization (AID 1960)
# T7 sequence (Q9XUB2 whole entry): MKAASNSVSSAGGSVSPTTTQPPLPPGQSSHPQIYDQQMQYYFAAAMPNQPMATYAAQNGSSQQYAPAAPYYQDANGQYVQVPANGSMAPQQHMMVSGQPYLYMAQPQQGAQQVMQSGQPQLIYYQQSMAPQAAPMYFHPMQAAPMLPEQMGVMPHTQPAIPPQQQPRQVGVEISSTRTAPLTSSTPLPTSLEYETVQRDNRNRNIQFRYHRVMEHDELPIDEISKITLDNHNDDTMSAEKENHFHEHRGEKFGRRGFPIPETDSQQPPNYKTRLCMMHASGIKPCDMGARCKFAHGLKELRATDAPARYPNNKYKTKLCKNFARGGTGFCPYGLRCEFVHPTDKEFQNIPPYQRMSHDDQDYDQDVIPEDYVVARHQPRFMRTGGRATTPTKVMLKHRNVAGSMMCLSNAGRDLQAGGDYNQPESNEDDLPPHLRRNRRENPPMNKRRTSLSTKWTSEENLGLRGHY
# Genome polyprotein = Genome polyprotein (dengue virus type 2, UniProt P29990); assay: Dengue-2 NS5 methyltransferase inhibitors, primary screen, biochemical, confirmation dose response (AID 588689); format: functional
# [13] = target: T8, RNA-binding protein pos-1 (Caenorhabditis elegans, UniProt G5EF15); assay: inhibitors of POS-1/mex-3 RNA binding, dose response, biochemical, fluorescence polarization (AID 1964);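 further: purified POS-1 fused to maltose binding protein made in E. coli; potency of compounds blocking POS-1 binding to fluorescent RNA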
# T8 sequence (G5EF15 whole entry): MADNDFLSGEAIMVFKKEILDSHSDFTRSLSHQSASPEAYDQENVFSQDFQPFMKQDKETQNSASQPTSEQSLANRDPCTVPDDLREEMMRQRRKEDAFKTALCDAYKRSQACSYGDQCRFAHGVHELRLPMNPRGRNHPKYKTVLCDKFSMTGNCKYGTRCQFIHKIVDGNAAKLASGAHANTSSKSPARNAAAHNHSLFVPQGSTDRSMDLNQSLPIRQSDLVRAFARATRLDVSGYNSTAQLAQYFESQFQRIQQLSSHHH
# [14] = target: Melanin-concentrating hormone receptor 1 (Homo sapiens, UniProt Q99705); assay: Late-stage fluorescence-based counterscreen for antagonists of the G-protein coupled receptor 7 (GPR7): cell-based dose response assay to identify antagonists of the melanin-concentrating hormone receptor 1 (MCHR1). [Related pubchem assays (depositor defined):AID1861, AID1880, AID1952, AID2148, AID2251, AID2257, AID485339]; format: functional;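 further: stimulated with 30 nM MCH peptide agonist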
# Chain of Melanin-concentrating hormone receptor 1 (Q99705 whole entry): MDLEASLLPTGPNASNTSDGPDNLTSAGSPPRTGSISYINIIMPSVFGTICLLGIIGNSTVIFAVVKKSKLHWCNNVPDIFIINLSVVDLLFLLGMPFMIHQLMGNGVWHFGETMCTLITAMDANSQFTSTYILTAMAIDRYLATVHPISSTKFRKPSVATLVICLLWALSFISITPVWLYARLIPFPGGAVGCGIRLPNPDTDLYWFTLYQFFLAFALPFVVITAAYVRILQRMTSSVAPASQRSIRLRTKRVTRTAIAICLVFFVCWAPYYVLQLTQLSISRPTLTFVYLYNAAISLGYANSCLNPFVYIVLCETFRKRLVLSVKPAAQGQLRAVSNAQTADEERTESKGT
# Chain of Voltage-dependent T-type calcium channel subunit alpha-1H (O95180 whole entry): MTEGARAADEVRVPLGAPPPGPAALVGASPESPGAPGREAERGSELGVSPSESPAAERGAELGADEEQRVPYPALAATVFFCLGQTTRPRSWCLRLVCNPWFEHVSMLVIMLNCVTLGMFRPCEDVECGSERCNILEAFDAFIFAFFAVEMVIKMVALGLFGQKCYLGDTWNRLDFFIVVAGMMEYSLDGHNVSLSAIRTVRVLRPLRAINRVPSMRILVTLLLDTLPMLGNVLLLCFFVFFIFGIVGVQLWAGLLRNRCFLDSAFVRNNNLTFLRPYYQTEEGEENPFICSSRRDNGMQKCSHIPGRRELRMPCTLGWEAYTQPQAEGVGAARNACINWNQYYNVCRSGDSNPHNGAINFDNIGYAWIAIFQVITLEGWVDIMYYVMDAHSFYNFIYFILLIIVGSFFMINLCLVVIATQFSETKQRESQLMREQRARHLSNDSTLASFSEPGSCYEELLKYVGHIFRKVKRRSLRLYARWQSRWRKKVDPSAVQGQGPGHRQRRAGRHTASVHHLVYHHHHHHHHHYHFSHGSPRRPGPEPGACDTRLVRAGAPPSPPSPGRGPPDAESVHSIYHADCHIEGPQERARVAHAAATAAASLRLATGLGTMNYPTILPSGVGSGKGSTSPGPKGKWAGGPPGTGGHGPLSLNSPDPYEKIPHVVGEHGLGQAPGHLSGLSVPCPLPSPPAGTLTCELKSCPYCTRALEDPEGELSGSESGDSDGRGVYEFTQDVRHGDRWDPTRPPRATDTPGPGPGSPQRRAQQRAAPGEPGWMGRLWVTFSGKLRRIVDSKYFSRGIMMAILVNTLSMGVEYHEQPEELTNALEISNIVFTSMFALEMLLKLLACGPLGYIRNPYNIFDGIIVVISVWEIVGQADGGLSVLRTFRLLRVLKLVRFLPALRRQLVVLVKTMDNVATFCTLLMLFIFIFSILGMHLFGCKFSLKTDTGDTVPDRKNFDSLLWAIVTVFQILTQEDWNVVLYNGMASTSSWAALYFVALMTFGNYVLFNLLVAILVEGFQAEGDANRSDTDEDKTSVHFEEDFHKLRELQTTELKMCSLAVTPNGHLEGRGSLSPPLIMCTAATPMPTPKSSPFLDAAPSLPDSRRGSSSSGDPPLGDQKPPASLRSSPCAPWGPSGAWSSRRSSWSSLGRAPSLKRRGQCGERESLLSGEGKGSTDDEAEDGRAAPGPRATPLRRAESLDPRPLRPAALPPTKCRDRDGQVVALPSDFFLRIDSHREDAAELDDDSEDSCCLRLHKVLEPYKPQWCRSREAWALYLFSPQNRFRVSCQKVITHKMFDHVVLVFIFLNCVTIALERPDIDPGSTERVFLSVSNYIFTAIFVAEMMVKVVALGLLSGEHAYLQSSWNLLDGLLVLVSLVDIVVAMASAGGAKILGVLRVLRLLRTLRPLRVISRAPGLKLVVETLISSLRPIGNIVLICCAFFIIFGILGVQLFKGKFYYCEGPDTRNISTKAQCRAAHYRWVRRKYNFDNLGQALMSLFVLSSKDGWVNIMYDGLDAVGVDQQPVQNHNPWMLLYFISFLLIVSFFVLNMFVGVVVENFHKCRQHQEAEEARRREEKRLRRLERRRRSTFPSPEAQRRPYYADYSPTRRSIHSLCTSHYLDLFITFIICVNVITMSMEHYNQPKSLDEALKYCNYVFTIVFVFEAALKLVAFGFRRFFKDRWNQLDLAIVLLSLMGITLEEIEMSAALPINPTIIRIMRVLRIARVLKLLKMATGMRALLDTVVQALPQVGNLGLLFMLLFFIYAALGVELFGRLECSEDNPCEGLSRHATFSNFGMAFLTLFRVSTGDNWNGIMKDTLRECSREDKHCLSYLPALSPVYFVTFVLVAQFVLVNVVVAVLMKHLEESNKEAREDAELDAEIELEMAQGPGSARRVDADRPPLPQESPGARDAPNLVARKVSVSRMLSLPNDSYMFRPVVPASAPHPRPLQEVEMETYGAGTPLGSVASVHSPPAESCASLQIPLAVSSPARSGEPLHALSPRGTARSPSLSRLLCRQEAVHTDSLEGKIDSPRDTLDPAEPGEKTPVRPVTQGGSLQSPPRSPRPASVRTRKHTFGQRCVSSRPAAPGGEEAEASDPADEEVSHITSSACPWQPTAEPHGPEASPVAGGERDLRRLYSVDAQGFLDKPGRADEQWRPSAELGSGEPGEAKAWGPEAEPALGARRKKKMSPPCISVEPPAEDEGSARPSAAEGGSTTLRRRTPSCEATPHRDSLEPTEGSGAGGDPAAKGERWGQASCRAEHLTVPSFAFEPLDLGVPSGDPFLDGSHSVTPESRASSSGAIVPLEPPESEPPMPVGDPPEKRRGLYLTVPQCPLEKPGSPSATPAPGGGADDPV
# T2 sequence (Q9UBE0 whole entry): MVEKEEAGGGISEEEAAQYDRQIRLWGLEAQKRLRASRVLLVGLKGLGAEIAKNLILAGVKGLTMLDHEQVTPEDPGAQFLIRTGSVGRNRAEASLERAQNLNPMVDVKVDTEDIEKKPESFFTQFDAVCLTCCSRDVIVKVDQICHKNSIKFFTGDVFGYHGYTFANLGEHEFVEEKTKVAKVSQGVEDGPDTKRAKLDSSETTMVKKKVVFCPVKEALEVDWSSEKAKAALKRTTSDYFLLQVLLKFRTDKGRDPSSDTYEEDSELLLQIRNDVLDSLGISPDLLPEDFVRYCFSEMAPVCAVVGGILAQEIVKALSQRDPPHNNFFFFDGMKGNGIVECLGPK
# T2 sequence (Q9UBT2 whole entry): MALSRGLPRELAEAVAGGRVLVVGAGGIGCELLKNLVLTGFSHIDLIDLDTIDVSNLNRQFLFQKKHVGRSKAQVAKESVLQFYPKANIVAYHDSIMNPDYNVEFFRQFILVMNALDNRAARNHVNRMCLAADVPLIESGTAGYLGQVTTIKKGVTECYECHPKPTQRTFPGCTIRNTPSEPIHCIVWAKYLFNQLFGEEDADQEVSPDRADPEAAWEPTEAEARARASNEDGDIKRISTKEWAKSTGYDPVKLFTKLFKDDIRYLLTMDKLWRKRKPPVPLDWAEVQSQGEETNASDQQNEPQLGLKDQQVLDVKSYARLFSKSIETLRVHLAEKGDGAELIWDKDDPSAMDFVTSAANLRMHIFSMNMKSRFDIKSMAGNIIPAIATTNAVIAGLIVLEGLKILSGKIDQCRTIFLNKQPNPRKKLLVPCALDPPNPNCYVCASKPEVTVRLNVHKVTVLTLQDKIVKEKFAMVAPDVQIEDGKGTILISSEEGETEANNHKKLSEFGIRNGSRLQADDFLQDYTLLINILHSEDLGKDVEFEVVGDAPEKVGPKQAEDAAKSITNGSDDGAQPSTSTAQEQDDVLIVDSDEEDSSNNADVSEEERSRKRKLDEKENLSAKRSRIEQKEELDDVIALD
# Chain of Photoreceptor-specific nuclear receptor (Q9Y5X4 whole entry): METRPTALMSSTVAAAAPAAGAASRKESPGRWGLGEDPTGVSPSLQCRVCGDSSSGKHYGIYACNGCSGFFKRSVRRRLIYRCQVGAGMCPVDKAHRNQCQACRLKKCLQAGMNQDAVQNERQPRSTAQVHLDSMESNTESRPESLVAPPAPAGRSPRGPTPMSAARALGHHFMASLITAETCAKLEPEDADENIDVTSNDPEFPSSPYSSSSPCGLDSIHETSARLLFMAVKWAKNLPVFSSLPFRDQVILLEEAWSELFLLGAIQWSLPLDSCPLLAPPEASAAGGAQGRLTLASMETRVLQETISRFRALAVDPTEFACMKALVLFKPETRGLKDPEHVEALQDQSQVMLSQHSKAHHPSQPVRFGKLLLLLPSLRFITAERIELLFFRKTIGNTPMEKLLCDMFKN
# Chain of Genome polyprotein (P29990 2492-3391 limits assumed): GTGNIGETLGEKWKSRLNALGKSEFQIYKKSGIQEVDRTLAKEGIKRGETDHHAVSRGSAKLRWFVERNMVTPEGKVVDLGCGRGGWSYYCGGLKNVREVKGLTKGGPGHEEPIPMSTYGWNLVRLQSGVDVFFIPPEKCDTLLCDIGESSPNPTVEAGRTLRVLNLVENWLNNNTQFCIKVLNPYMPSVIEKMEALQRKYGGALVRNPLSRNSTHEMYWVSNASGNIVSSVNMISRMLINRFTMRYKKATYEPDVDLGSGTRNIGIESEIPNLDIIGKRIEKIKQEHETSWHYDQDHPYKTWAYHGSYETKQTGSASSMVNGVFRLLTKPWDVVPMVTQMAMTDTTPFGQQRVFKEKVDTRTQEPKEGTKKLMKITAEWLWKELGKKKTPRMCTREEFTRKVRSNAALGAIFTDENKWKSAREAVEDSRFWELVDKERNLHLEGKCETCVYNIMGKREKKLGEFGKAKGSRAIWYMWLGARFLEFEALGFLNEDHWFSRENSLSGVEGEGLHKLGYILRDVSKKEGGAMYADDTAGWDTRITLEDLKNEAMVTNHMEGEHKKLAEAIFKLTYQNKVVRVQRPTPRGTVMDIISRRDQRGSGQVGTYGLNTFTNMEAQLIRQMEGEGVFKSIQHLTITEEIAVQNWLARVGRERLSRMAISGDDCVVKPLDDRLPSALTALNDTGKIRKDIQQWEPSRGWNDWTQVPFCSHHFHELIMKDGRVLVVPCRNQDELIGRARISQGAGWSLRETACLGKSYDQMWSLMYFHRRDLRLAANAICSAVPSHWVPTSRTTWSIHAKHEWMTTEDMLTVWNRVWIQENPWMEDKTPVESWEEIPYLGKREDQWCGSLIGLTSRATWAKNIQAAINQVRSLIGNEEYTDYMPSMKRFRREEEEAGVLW
compound,measurement,setting,value
O=c1c(C(c2ccccc2)c2c(O)sc3ccccc3c2=O)c(O)sc2ccccc12,IC50,[1],4.29 µM (not active)
same,IC50,SUMO-activating enzyme [2],11.3 µM (active)
same,IC50,SUMO-activating enzyme [3],4.11 µM (active)
COc1ccc(NC(=O)[C@@H](NC(=O)c2ccccc2)C(C)C)cc1S(=O)(=O)N1CCCCC1,IC50,Aminopeptidase N,39 µM (active)
CC1NC(=O)NC1CCCCCC(=O)NCCc1ccccc1 (stereo not given),EC50,cells [4],> 29.9 µM (inactive)
same,IC50,[5],1.06 µM (active)
same,EC50,[6],1.93 µM (active)
same,IC50,cells [7],> 29.9 µM (inactive)
same,IC50,[8],3.01 µM (active)
same,IC50,[9],6.36 µM (active)
O=C(CSc1n[nH]c2c3ccccc3nc-2n1)Nc1ccc(S(=O)(=O)Nc2ncccn2)cc1,IC50,Leucine aminopeptidase,28.3 µM (active)
same,IC50,Aminopeptidase N,61.6 µM (active)
O=C(Nc1ccc2c(c1)OCO2)C1CCN(S(=O)(=O)c2ccc3c(c2)OCCO3)CC1,IC50,Aminopeptidase N,45.7 µM (active)
COc1ccccc1N1CCN(CC(=O)Nc2ccc(Cl)c(C(F)(F)F)c2)CC1,EC50,[10],4.08 µM (active)
O=C(Nc1ccccc1Oc1cccnc1)C1CCCN(Cc2cccc(Cl)c2)C1 (stereo not given),EC50,[11],3.76 µM (active)
COC(=O)c1c(Cl)c2n3ccccc3c(C)c(-c3ccccc3)c-2c1C(=O)OC,EC50,[12],25.8 µM (active)
same,IC50,Genome polyprotein,74.5 µM (active)
same,IC50,[5],0.303 µM (active)
same,IC50,[8],0.0555 µM (active)
same,EC50,[13],47.5 µM (active)
Cc1ccc(N2CCN(C(=O)c3ccccc3F)CC2)c(C)c1,EC50,[11],5.96 µM (active)
O=C(Cc1ccccc1F)Nc1nc(-c2cccs2)cs1,EC50,[10],1.98 µM (active)
CC(C)N(Cc1nc(-c2ccc(Cl)cc2)no1)C(=O)CCCN1C(=O)c2ccccc2C1=O,EC50,[10],3.89 µM (active)
CCc1cnn(-c2ccc(C(C)C)cc2)c(=O)c1Oc1ccc(OC)cc1,IC50,[14],12.8 µM (inactive)
COc1ccc(Oc2c(C3CC3)cnn(-c3ccc(C)cc3)c2=O)cc1,IC50,[14],5.4 µM (active)
